Reference: patent US7723307B2, “Amino acid derivatives and pharmaceutical uses thereof” (Aston University, priority 2003, dated 2010)

What was measured:
SNx rats = assay: Renal function in subtotal nephrectomy (SNx) rats with inhibitor instilled into the kidney by osmotic minipump; type: in vivo, rat; details: 90 day SNx rats, inhibitor 50 mM instilled into kidney, 5 animals per group
Source text: Male Wistar rat of approximately 300 g weight was anaesthetised using 5% halothane and maintained at 3% for the duration of the surgical procedure. The rat was subjected to a ⅚th subtotal nephrectomy (SNx) by ligation of the left renal artery and vein followed by complete nephrectomy of the left kidney. The right kidney had both the upper and lower poles ligated followed by excision of both poles. A 9-cm cannula (0.32 mm bore) was sealed on one end and fenestrated between 3 and 12 mm from the sealed end. This was then inserted through the parenchyma (cut to cut/pole to pole) of the kidney so that the blunt end was just visible through one of the cut ends. This was then sealed in position using tissue glue on both ends of the kidney such that the fenestrated area was within the remnant kidney. The cannula was passed through the muscle wall, which was then stitched using reabsorbable sutures. The cannula was then attached to the regulator of a 2 ml osmotic minipump (Azlet osmotic minipump (2 ml4), Charles Rivers, UK) that was loaded (primed for 15 hrs at RT) with either PBS (SNx) or TGase inhibitor 281 or 283 (SNx+281 and SNx+283, respectively) at a concentration of 50 mM (delivery 1.5 μl per hour). The pump was then positioned subcutaneously on the right upper flank of the animal and the skin sutured. The animal was then switched onto oxygen and allowed to partially regain consciousness before being returned to the cage. The pump was changed every 28 days under halothane anaesthesia. […] The animal was then anaesthetised, the remnant kidney recovered and a terminal blood sample collected.
Proteinuria, creatinine clearance, serum clearance, urine creatinine and urine urea were carried out by standard clinical chemistry techniques (Johnson et al., 1997, J. Clin. Invest. 99:2950-2960). Creatinine and urea were measured by the standard autoanalyser technique and proteinura by the Biuret method (Johnson et al., supra). Data represent mean values ±SE, taken from 5 animals per group.

TGase [1] = assay: 14C-putrescine incorporation into N,N'-dimethyl casein in kidney homogenates of treated SNx rats; type: in vivo, rat; details: day 84
Source text: (§1) Male Wistar rat of approximately 300 g weight was anaesthetised using 5% halothane and maintained at 3% for the duration of the surgical procedure. The rat was subjected to a ⅚th subtotal nephrectomy (SNx) by ligation of the left renal artery and vein followed by complete nephrectomy of the left kidney. The right kidney had both the upper and lower poles ligated followed by excision of both poles. A 9-cm cannula (0.32 mm bore) was sealed on one end and fenestrated between 3 and 12 mm from the sealed end. This was then inserted through the parenchyma (cut to cut/pole to pole) of the kidney so that the blunt end was just visible through one of the cut ends. This was then sealed in position using tissue glue on both ends of the kidney such that the fenestrated area was within the remnant kidney. The cannula was passed through the muscle wall, which was then stitched using reabsorbable sutures. The cannula was then attached to the regulator of a 2 ml osmotic minipump (Azlet osmotic minipump (2 ml4), Charles Rivers, UK) that was loaded (primed for 15 hrs at RT) with either PBS (SNx) or TGase inhibitor 281 or 283 (SNx+281 and SNx+283, respectively) at a concentration of 50 mM (delivery 1.5 μl per hour). The pump was then positioned subcutaneously on the right upper flank of the animal and the skin sutured. […]

TGase [2] = assay: In situ TGase activity in kidney cryostat sections of treated SNx rats; type: in vivo, rat; details: SNx rats treated for 28 days, biotin cadaverine incorporation
Source text: as §1, with “sutures.” for “sutures. The cannula was then attached to the regulator of a 2 ml osmotic minipump (Azlet osmotic minipump (2 ml4), Charles Rivers, UK) that was loaded (primed for 15 hrs at RT) with either PBS (SNx) or TGase inhibitor 281 or 283 (SNx+281 and SNx+283, respectively) at a concentration of 50 mM (delivery 1.5 μl per hour). The pump was then positioned subcutaneously on the right upper flank of the animal and the skin sutured.”
Rat kidneys treated in vivo with TGase inhibitors were snap-frozen in liquid nitrogen and 14 μm sections were cut using a cryostat and allowed to air-dry. […] Slides were viewed on a Leica TCSNT confocal microscope equipped with excitation and emission filters for Cy5, and emitted fluorescence was quantified with the software supplied by the manufacturer. […]

tissue transglutaminase = target: T1, tissue transglutaminase (UniProt P08587); assay: TGase-mediated crosslinking of fibronectin, SDS-PAGE; type: biochemical; details: compound 250 μM, TGase and fibronectin 50 μg/ml each, 37° C. for 2 hr
T1 sequence (P08587 1-690): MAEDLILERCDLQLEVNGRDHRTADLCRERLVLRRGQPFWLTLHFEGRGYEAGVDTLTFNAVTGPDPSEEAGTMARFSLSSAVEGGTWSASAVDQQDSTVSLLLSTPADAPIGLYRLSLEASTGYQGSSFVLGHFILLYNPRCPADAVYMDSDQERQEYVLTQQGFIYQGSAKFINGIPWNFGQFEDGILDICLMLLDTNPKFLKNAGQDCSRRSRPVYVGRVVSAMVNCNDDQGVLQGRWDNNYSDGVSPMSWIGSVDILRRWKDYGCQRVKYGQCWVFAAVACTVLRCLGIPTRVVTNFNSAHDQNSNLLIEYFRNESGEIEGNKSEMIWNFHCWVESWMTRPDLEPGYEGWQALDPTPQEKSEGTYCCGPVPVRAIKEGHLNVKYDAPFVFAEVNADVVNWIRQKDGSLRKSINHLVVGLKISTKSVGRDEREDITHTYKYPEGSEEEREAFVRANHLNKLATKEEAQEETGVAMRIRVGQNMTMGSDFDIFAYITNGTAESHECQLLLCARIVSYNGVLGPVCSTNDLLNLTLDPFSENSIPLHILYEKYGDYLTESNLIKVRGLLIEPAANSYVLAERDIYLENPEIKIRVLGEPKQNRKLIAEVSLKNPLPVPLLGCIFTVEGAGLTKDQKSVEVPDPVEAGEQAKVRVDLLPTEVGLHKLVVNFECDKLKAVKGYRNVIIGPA
Description: • 1. Preactivate TGase in 3 mM DTT (where applicable) on ice for 1 hr. • 2. Crosslink TGase with fibronectin in 40 mM Tris/100 mM NaCl at 50 μg/ml final concentration each, according to Table 1 below. Include non-activated Tgase/preactivated Tgase controls in the presence and absence of the inhibitors to investigate potential homodimer formation. • 3. Incubate at 37° C. for 2 hr to allow crosslink formation to take place. • 4. Solubilise crosslink in 2× Laemmli buffer. Vortex and spin down insoluble material. • 5. Load 20 μg of total protein (Tgase+Fn) on a 7% acrylamide SDS PAGE gel. Run gel at […] until dye escapes from the bottom of the gel. • 6. Stain with coomassie brilliant blue for 1 hr at RT. • 7. De-stain in 30% methanol/10% acetic acid at RT.
SDS-PAGE data showing tTGase-mediated crosslinking of fibronectin following treatment with exemplary compounds of the invention is shown in FIG. 22.

| SMILES | Proteinuria, Mean (SNx rats) | Serum creatinine, Mean (SNx rats) | Serum urea, Mean (SNx rats) | Urine creatinine, Mean (SNx rats) | Urine urea, Mean (SNx rats) | TGase activity by 14C-putrescine incorporation in kidney homogenates (FIG. 25b) (TGase [1]) | In situ TGase activity in kidney cryostat sections (FIG. 25a) (TGase [2]) | tTGase-mediated crosslinking of fibronectin (FIG. 22) (tissue transglutaminase) |
| --- | --- | --- | --- | --- | --- | --- | --- | --- |
| CC(=O)CSc1n(C)cc[n+]1C.[Cl-] [Compound 283, 1,3-dimethyl-2-(2-oxopropylsulfanyl)-3H-1,3-diazol-1-ium-chloride, reference compound] | 835 mg/24 h | 114 µM | 16.3 mM/L | 3140 µM | 272 mM/L | inhibition | inhibition |  |
| C[S+](C)CC(=O)CCC(NC(=O)C(Cc1ccccc1)NC(=O)OCc1ccccc1)C(=O)O [Compound 281, N-Benzyloxycarbonyl-L-phenylalanyl-6-dimethylsulfonium-5-oxo-L-norleucine] | 503 mg/24 h | 208 µM | 22.32 mM/L | 4000 µM | 372 mM/L | inhibition | inhibition | inhibition |
| C[S+](C)CC(=O)CCC(NC(=O)C(CCC(N)=O)NC(=O)OCc1ccccc1)C(=O)O [Compound 285, N-Benzyloxycarbonyl-L-glutaminyl-6-dimethylsulfonium-5-oxo-L-norleucine] |  |  |  |  |  |  |  | inhibition |
